Article PMC10491774 (Cell Death & Disease, 2023)

Target: 6-phosphofructo-2-kinase/fructose-2,6-bisphosphatase 3 (PFKFB3) (Homo sapiens, UniProt Q16875)
Test: ADP-Glo kinase assay with purified recombinant human PFKFB3; partial inhibition, only by the Ca2+-free form; counter assay done
Format: biochemical

Sequence of 6-phosphofructo-2-kinase/fructose-2,6-bisphosphatase 3 (PFKFB3) (Q16875 whole entry): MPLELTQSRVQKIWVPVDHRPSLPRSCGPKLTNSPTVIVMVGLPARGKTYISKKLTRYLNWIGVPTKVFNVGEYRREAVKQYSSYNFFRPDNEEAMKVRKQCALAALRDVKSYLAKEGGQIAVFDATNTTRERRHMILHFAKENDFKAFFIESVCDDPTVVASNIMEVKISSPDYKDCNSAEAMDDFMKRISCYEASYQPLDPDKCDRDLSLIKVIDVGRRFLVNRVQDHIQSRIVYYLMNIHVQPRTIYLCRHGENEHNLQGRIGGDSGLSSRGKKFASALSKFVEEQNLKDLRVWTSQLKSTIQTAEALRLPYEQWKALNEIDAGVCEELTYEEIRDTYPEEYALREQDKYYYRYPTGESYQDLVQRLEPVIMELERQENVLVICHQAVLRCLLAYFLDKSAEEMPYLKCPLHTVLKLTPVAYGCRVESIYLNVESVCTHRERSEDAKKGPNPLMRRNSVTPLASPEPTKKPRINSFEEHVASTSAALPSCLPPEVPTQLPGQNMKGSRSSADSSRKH

IC50: 110 µM
Structure (SMILES): O=C(O)CN(CC(=O)O)c1ccccc1OCCOc1ccccc1N(CC(=O)O)CC(=O)O [BAPTA, 1,2-Bis-(o-Aminophenoxy)-ethane-N,N,N’,N’-tetraacetic acid]
